Measurements from article PMC10289903 (Investigational New Drugs, 2023).
Like-named read-outs stand apart in the source and are kept apart here.

System: patients with locally advanced or metastatic solid tumors
Text: This was a Phase Ib, multicenter, open-label, dose-finding clinical trial (NCT02610075). […] Three types of treatment schedules were investigated: cohorts bid 1, bid 2, qd 1.1, qd 2.1 and qd 3.1 received bid or qd treatment on a 5/9 schedule (5 days on treatment, followed by 9 days off) on a 14-day cycle. Cohorts qd 1.2, qd 2.2, and qd 3.2 received treatment on a 5/2 schedule (5 days on followed by 2 days off for 2 of 3 weeks) in a 21-day cycle. Cohorts qd 2.3 and qd 3.3 received treatment on a weekly 5/2 schedule in a 21-day cycle (Table 1). The highest dose level(s) at which less than one-third of evaluable patients (none of 3 patients or 1 of 6 patients) experienced a dose-limiting toxicity (DLT) was declared the MTD.
The per protocol analysis set was defined as a subset of the full analysis set, excluding subjects having an important protocol deviation, to be used for analyses of efficacy endpoints if appropriate.

[1] = qd 3.3: 300 mg 5/2 weekly (n=2)

C=CCn1c(=O)c2cnc(Nc3ccc(N4CCN(C)CC4)cc3)nc2n1-c1cccc(C(C)(C)O)n1 [adavosertib, Adavosertib]
Dehydration (treatment-emergent AE) (qd 3.1: 300 mg qd 5/9 (n=4)): 1 (25.0) n (%)
Dehydration (treatment-related AE) (qd 3.1: 300 mg qd 5/9 (n=4)): 0 n (%)
Diarrhea (treatment-emergent AE) (qd 3.1: 300 mg qd 5/9 (n=4)): 0 n (%)
Diarrhea (treatment-related AE) (qd 3.1: 300 mg qd 5/9 (n=4)): 0 n (%)
Dizziness (treatment-emergent AE) (qd 3.1: 300 mg qd 5/9 (n=4)): 2 (50.0) n (%)
Dyspepsia (treatment-emergent AE) (qd 3.1: 300 mg qd 5/9 (n=4)): 0 n (%)
Dyspepsia (treatment-related AE) (qd 3.1: 300 mg qd 5/9 (n=4)): 0 n (%)
Dyspnea (treatment-emergent AE) (qd 3.1: 300 mg qd 5/9 (n=4)): 2 (50.0) n (%)
Edema peripheral (treatment-emergent AE) (qd 3.1: 300 mg qd 5/9 (n=4)): 2 (50.0) n (%)
Fall (treatment-emergent AE) (qd 3.1: 300 mg qd 5/9 (n=4)): 0 n (%)
Fatigue (treatment-emergent AE) (qd 3.1: 300 mg qd 5/9 (n=4)): 2 (50.0) n (%)
Fatigue (treatment-related AE) (qd 3.1: 300 mg qd 5/9 (n=4)): 1 (25.0) n (%)
Headache (treatment-emergent AE) (qd 3.1: 300 mg qd 5/9 (n=4)): 0 n (%)
Hypokalemia (treatment-emergent AE) (qd 3.1: 300 mg qd 5/9 (n=4)): 0 n (%)
Insomnia (treatment-emergent AE) (qd 3.1: 300 mg qd 5/9 (n=4)): 1 (25.0) n (%)
Muscle spasms (treatment-emergent AE) (qd 3.1: 300 mg qd 5/9 (n=4)): 1 (25.0) n (%)
Myalgia (treatment-emergent AE) (qd 3.1: 300 mg qd 5/9 (n=4)): 1 (25.0) n (%)
Myalgia (treatment-related AE) (qd 3.1: 300 mg qd 5/9 (n=4)): 1 (25.0) n (%)
Nausea (treatment-emergent AE) (qd 3.1: 300 mg qd 5/9 (n=4)): 2 (50.0) n (%)
Nausea (treatment-related AE) (qd 3.1: 300 mg qd 5/9 (n=4)): 2 (50.0) n (%)
Neutropenia (treatment-emergent AE) (qd 3.1: 300 mg qd 5/9 (n=4)): 0 n (%)
Neutropenia (treatment-related AE) (qd 3.1: 300 mg qd 5/9 (n=4)): 0 n (%)
Pneumonia (treatment-emergent AE) (qd 3.1: 300 mg qd 5/9 (n=4)): 0 n (%)
Pyrexia (treatment-emergent AE) (qd 3.1: 300 mg qd 5/9 (n=4)): 0 n (%)
Rash (treatment-emergent AE) (qd 3.1: 300 mg qd 5/9 (n=4)): 0 n (%)
Thrombocytopenia (treatment-emergent AE) (qd 3.1: 300 mg qd 5/9 (n=4)): 1 (25.0) n (%)
Thrombocytopenia (treatment-related AE) (qd 3.1: 300 mg qd 5/9 (n=4)): 1 (25.0) n (%)
Urinary tract infection (treatment-emergent AE) (qd 3.1: 300 mg qd 5/9 (n=4)): 0 n (%)
Vomiting (treatment-emergent AE) (qd 3.1: 300 mg qd 5/9 (n=4)): 0 n (%)
Vomiting (treatment-related AE) (qd 3.1: 300 mg qd 5/9 (n=4)): 0 n (%)
Abdominal pain (treatment-emergent AE) (qd 3.2: 300 mg qd 5/2 (n=16)): 4 (25.0) n (%)
Abdominal pain (treatment-related AE) (qd 3.2: 300 mg qd 5/2 (n=16)): 2 (12.5) n (%)
Alanine aminotransferase increased (treatment-emergent AE) (qd 3.2: 300 mg qd 5/2 (n=16)): 0 n (%)
Anemia (treatment-emergent AE) (qd 3.2: 300 mg qd 5/2 (n=16)): 8 (50.0) n (%)
Anemia (treatment-related AE) (qd 3.2: 300 mg qd 5/2 (n=16)): 6 (37.5) n (%)
Any AE (treatment-emergent) (qd 3.2: 300 mg qd 5/2 (n=16)): 16 (100.0) n (%)
Any grade ≥ 3 AE (qd 3.2: 300 mg qd 5/2 (n=16)): 12 (75.0) n (%)
Any treatment-related AE (qd 3.2: 300 mg qd 5/2 (n=16)): 16 (100.0) n (%)
Any treatment-related grade ≥ 3 AE (qd 3.2: 300 mg qd 5/2 (n=16)): 8 (50.0) n (%)
Asthenia (treatment-emergent AE) (qd 3.2: 300 mg qd 5/2 (n=16)): 4 (25.0) n (%)
Asthenia (treatment-related AE) (qd 3.2: 300 mg qd 5/2 (n=16)): 2 (12.5) n (%)
Back pain (treatment-emergent AE) (qd 3.2: 300 mg qd 5/2 (n=16)): 4 (25.0) n (%)
Constipation (treatment-emergent AE) (qd 3.2: 300 mg qd 5/2 (n=16)): 4 (25.0) n (%)
Constipation (treatment-related AE) (qd 3.2: 300 mg qd 5/2 (n=16)): 0 n (%)
Cough (treatment-emergent AE) (qd 3.2: 300 mg qd 5/2 (n=16)): 2 (12.5) n (%)
Decreased appetite (treatment-emergent AE) (qd 3.2: 300 mg qd 5/2 (n=16)): 5 (31.3) n (%)
Decreased appetite (treatment-related AE) (qd 3.2: 300 mg qd 5/2 (n=16)): 4 (25.0) n (%)
Dehydration (treatment-emergent AE) (qd 3.2: 300 mg qd 5/2 (n=16)): 7 (43.8) n (%)
Dehydration (treatment-related AE) (qd 3.2: 300 mg qd 5/2 (n=16)): 1 (6.3) n (%)
Diarrhea (treatment-emergent AE) (qd 3.2: 300 mg qd 5/2 (n=16)): 9 (56.3) n (%)
Diarrhea (treatment-related AE) (qd 3.2: 300 mg qd 5/2 (n=16)): 9 (56.3) n (%)
Dizziness (treatment-emergent AE) (qd 3.2: 300 mg qd 5/2 (n=16)): 4 (25.0) n (%)
Dyspepsia (treatment-emergent AE) (qd 3.2: 300 mg qd 5/2 (n=16)): 2 (12.5) n (%)
Dyspepsia (treatment-related AE) (qd 3.2: 300 mg qd 5/2 (n=16)): 2 (12.5) n (%)
Dyspnea (treatment-emergent AE) (qd 3.2: 300 mg qd 5/2 (n=16)): 3 (18.8) n (%)
Edema peripheral (treatment-emergent AE) (qd 3.2: 300 mg qd 5/2 (n=16)): 4 (25.0) n (%)
Fall (treatment-emergent AE) (qd 3.2: 300 mg qd 5/2 (n=16)): 3 (18.8) n (%)
Fatigue (treatment-emergent AE) (qd 3.2: 300 mg qd 5/2 (n=16)): 9 (56.3) n (%)
Fatigue (treatment-related AE) (qd 3.2: 300 mg qd 5/2 (n=16)): 8 (50.0) n (%)
Headache (treatment-emergent AE) (qd 3.2: 300 mg qd 5/2 (n=16)): 1 (6.3) n (%)
Hypokalemia (treatment-emergent AE) (qd 3.2: 300 mg qd 5/2 (n=16)): 4 (25.0) n (%)
Insomnia (treatment-emergent AE) (qd 3.2: 300 mg qd 5/2 (n=16)): 0 n (%)
Muscle spasms (treatment-emergent AE) (qd 3.2: 300 mg qd 5/2 (n=16)): 1 (6.3) n (%)
Myalgia (treatment-emergent AE) (qd 3.2: 300 mg qd 5/2 (n=16)): 3 (18.8) n (%)
Myalgia (treatment-related AE) (qd 3.2: 300 mg qd 5/2 (n=16)): 1 (6.3) n (%)
Nausea (treatment-emergent AE) (qd 3.2: 300 mg qd 5/2 (n=16)): 9 (56.3) n (%)
Nausea (treatment-related AE) (qd 3.2: 300 mg qd 5/2 (n=16)): 7 (43.8) n (%)
Neutropenia (treatment-emergent AE) (qd 3.2: 300 mg qd 5/2 (n=16)): 4 (25.0) n (%)
Neutropenia (treatment-related AE) (qd 3.2: 300 mg qd 5/2 (n=16)): 4 (25.0) n (%)
Pneumonia (treatment-emergent AE) (qd 3.2: 300 mg qd 5/2 (n=16)): 4 (25.0) n (%)
Pyrexia (treatment-emergent AE) (qd 3.2: 300 mg qd 5/2 (n=16)): 3 (18.8) n (%)
Rash (treatment-emergent AE) (qd 3.2: 300 mg qd 5/2 (n=16)): 2 (12.5) n (%)
Thrombocytopenia (treatment-emergent AE) (qd 3.2: 300 mg qd 5/2 (n=16)): 3 (18.8) n (%)
Thrombocytopenia (treatment-related AE) (qd 3.2: 300 mg qd 5/2 (n=16)): 3 (18.8) n (%)
Urinary tract infection (treatment-emergent AE) (qd 3.2: 300 mg qd 5/2 (n=16)): 3 (18.8) n (%)
Vomiting (treatment-emergent AE) (qd 3.2: 300 mg qd 5/2 (n=16)): 5 (31.3) n (%)
Vomiting (treatment-related AE) (qd 3.2: 300 mg qd 5/2 (n=16)): 4 (25.0) n (%)
Abdominal pain (treatment-emergent AE) [1]: 1 (50.0) n (%)
Abdominal pain (treatment-related AE) [1]: 1 (50.0) n (%)
Alanine aminotransferase increased (treatment-emergent AE) [1]: 0 n (%)
Anemia (treatment-emergent AE) [1]: 0 n (%)
Anemia (treatment-related AE) [1]: 0 n (%)
Any AE (treatment-emergent) [1]: 2 (100.0) n (%)
Any grade ≥ 3 AE [1]: 1 (50.0) n (%)
Any treatment-related AE [1]: 2 (100.0) n (%)
Any treatment-related grade ≥ 3 AE [1]: 1 (50.0) n (%)
Asthenia (treatment-emergent AE) [1]: 0 n (%)
Asthenia (treatment-related AE) [1]: 0 n (%)
Back pain (treatment-emergent AE) [1]: 0 n (%)
Constipation (treatment-emergent AE) [1]: 0 n (%)
Constipation (treatment-related AE) [1]: 0 n (%)
Cough (treatment-emergent AE) [1]: 0 n (%)
Decreased appetite (treatment-emergent AE) [1]: 0 n (%)
Decreased appetite (treatment-related AE) [1]: 0 n (%)
Dehydration (treatment-emergent AE) [1]: 0 n (%)
Dehydration (treatment-related AE) [1]: 0 n (%)
Diarrhea (treatment-emergent AE) [1]: 2 (100.0) n (%)
Diarrhea (treatment-related AE) [1]: 2 (100.0) n (%)
Dizziness (treatment-emergent AE) [1]: 1 (50.0) n (%)
Dyspepsia (treatment-emergent AE) [1]: 0 n (%)
Dyspepsia (treatment-related AE) [1]: 0 n (%)
Dyspnea (treatment-emergent AE) [1]: 0 n (%)
Edema peripheral (treatment-emergent AE) [1]: 0 n (%)
Fall (treatment-emergent AE) [1]: 0 n (%)
Fatigue (treatment-emergent AE) [1]: 0 n (%)
Fatigue (treatment-related AE) [1]: 0 n (%)
Headache (treatment-emergent AE) [1]: 0 n (%)
Hypokalemia (treatment-emergent AE) [1]: 1 (50.0) n (%)
Insomnia (treatment-emergent AE) [1]: 0 n (%)
Muscle spasms (treatment-emergent AE) [1]: 0 n (%)
Myalgia (treatment-emergent AE) [1]: 1 (50.0) n (%)
Myalgia (treatment-related AE) [1]: 0 n (%)
Nausea (treatment-emergent AE) [1]: 2 (100.0) n (%)
Nausea (treatment-related AE) [1]: 2 (100) n (%)
Neutropenia (treatment-emergent AE) [1]: 1 (50.0) n (%)
Neutropenia (treatment-related AE) [1]: 1 (50.0) n (%)
